The source of these data is US20260028340A1 (Supernus Pharmaceuticals, Inc., priority 2023, published 2026).

Series [1] in a line: Stability in water and in a pH 7.4 buffer. Format: physicochemical. The following applies: after 24 hours. Here is the method:
A sample of the 15 mg isolated material was evaluated for stability in water and in a pH 7.4 buffer. After 24 hours, the sample in water had 86% remaining and the sample in the pH 7.4 buffer had 92% remaining. The decomposition gave mainly the ring-opened Compound A as a byproduct.
(§1) 3,3-dimethylacrylic acid (96 mg, 0.96 mmol) and HATU (366 mg, 0.96 mmol) were mixed in 2 mL of DMF and 280 μL of DIPEA was added to the mixture. After the addition of Compound A (183 mg, 0.64 mmol), the mixture was stirred for 2 min. Additional DIPEA (280 μL) was added to the solution, and the yellow solution was stirred at room temperature for 2 hr. After the addition of water, the mixture was extracted with EtOAc (4×). The extract was washed with brine (4×), was dried over MgSO4, and was evaporated. […] This material was purified by prep HPLC to obtain 58 mg of II-7 (86% pure) that contained a later eluting byproduct. A sample was assayed for stability in water (63% at the 24-hour time point) and in a pH 7.4 buffer (77% at the 24 hour time point).

Series [2] in a line: Storage stability in acetonitrile or acetonitrile/water solution at room temperature. Conditions: for decomposition in acetonitrile/water: crude product in acetonitrile/water, kept at room temperature overnight. Format: physicochemical. On the procedure: Preparatory HPLC of the crude product gave a mixture of the desired compound in addition to some Compound A (formed during the HPLC separation). After the product was treated with dichloromethane, the solution was dried over MgSO4, and was evaporated to give 15 mg of the ether derivative I-5 as an oily solid (97.7% by HPLC). After the sample was stored for 2 days at room temperature (RT) in acetonitrile solution, it had decomposed to approximately 85% purity with the main byproduct being a ring-opened form of Compound A.
as §1
Geranic acid ([…], 0.96 mmol) and HATU (366 mg, 0.96 mmol) were mixed in 2 mL of DMF. Following the addition of 280 μL of DIPEA to the solution, Compound A (180 mg, 0.64 mmol) was added to the solution, and the mixture was stirred for 2 min. Additional DIPEA (280 μL) was added, and the yellow solution was stirred at room temperature for 2 hr. Following the addition of water, the mixture was extracted with EtOAc (4×). The extract was washed with brine (4×), was dried over MgSO4, and was evaporated. The crude product II-9 appeared by HPLC to be over 70% in one peak.

Series [3] can be described thus: Pharmacokinetic data in CD-1 mice after oral administration. Format: in vivo. Conditions: mouse, serum, Table 7: CD-1 mice, nominal dose 5.10 mg/kg Cmpd. A or 6.57-8.40 mg/kg DV salt, analyte: dosed derivative (DV).

Take `COC(=O)COC1(c2ccc(Cl)cc2)c2ccccc2C2=NCCN21` (stereo not drawn) [Compound I-5, methyl 2-((5-(4-chlorophenyl)-2,5-dihydro-3H-imidazo[2,1-a]isoindol-5-yl)oxy)acetate]: in series [1], the “remaining, stability in pH 7.4 buffer” value is recorded as 92% and the “remaining, stability in water” value came out at 86%. Moreover, the “purity after storage in acetonitrile solution” value in series [2] (stored for 2 days at room temperature in acetonitrile solution, initial 97.7% by HPLC) is on record as “approximately 85%”.
For the compound `FC(F)(F)c1ccc(/C=C/COC2(c3ccc(Cl)cc3)c3ccccc3C3=NCCN32)cc1` (stereo not drawn) [Compound I-18, (E)-5-(4-chlorophenyl)-5-((3-(4-(trifluoromethyl)phenyl)allyl)oxy)-2,5-dihydro-3H-imidazo[2,1-a]isoindole], in series [3], the AUC(0-inf) is 792 ng·h/mL, the AUC(0-t) was determined as 677 ng·h/mL, the Cmax was 187 ng/mL and the Tmax turned out to be 30 min. For the same compound, the half-life in series [3] is 237 min.
Regarding `Clc1ccc(C2(OCC3OCCO3)c3ccccc3C3=NCCN32)cc1` (stereo not drawn) [Compound I-19, 5-((1,3-dioxolan-2-yl)methoxy)-5-(4-chlorophenyl)-2,5-dihydro-3H-imidazo[2,1-a]isoindole], in series [3], the AUC(0-t) came to 2.04 ng·h/mL, the Cmax came out at 4.27 ng/mL and the Tmax stood at 20 min.
Consider `CC(C)=CC(=O)N1CCN=C1c1ccccc1C(=O)c1ccc(Cl)cc1` [II-7, 1-(2-(2-(4-chlorobenzoyl)phenyl)-4,5-dihydro-1H-imidazol-1-yl)-3-methylbut-2-en-1-one], for which, in series [1], the “remaining, stability in pH 7.4 buffer” value is recorded as 77% and the “remaining, stability in water” value is 63%. In addition, the decomposition in acetonitrile/water entry in series [2] was “significant decomposition occurred”.
Turning to `CC(C)=CCC/C(C)=C/C(=O)N1CCN=C1c1ccccc1C(=O)c1ccc(Cl)cc1` [II-9, (E)-1-(2-(2-(4-chlorobenzoyl)phenyl)-4,5-dihydro-1H-imidazol-1-yl)-3,7-dimethylocta-2,6-dien-1-one], the decomposition in acetonitrile/water entry in series [2] is on record as “complete decomposition occurred”.

As a reminder, the AUC(0-inf) is the area under the concentration-time curve extrapolated to infinity. As usually defined, the AUC(0-t) is the area under the concentration-time curve up to a stated or last time point. A word on the Cmax: it is the maximum level reached in the sampled fluid or tissue. One may read the Tmax as the time at which the peak concentration occurs. By half-life is commonly meant how long it takes for the measured level to halve.
